Test results as given in patent US5599789A, “Method for the treatment of tumours and sarcomas” (Amrad Corporation Limited, priority 1991, dated 1997).

Assays:
[1] = system: Ewing's Sarcoma cell line Al-5; test: Colony formation in semi-solid agar cultures, Al-5 cells; type: cell-based, human; conditions: Al-5, 1,000 cells, day 18
Procedure: (§1) Tumour cells obtained from biopsy and bone marrow specimens from patients with Ewing's Sarcoma were used in these studies. Approval for this project has been obtained from the Ethics Committee of the Royal Children's Hospital.
(§2) Single cell suspensions of tumour cells were obtained by mechanical disruption with an 18G or 21G needle or by pipetting, followed by incubation with dispase II (Boehringer) at a concentration of 1.2 units per ml for 10 minutes at 37° C. Prior to the addition to agar-medium the cells were vortexed gently to prevent clumping.
(§3) Clonal cell lines were grown in Iscove's Modified Dulbecco's Medium (IMDM) supplemented with 10% v/v foetal calf serum (FCS; CSL Limited, Melbourne, Australia) and were passaged either weekly or twice weekly. The characteristics of the Ewing Sarcoma cell lines used herein as described below:
(§4) Cell lines derived from the above primary cell lines (Al and Cu) are identified by an Arabic numeral (e.g. Al-1, Al-5, Al-8 or Cu-1).
(§5) The tumour cells were immobilised in 0.3% w/v agar containing Iscove's Modified Dulbecco's Medium (IMDM) and 10% v/v FCS. […] Cultures were scored for the presence of colonies (>40 cells) or clusters (<40 cells). The number of cells plated per culture ranged from 500 to 10,000 per ml. Colonies were counted on an Olympus dissecting microscope.
(§6) IL-1, IL-3, IL-4, IL-6, M-CSF, G-CSF, GM-CSF, Stem Cell Factor (SCF), TNFα, TGFα, TGFβ, EGF, aFGF, bFGF, NGF, IGF I, IGF II, PDGF and IFN-γ.
(§7) The recombinant human leukaemia inhibitory factor (LIF) was obtained from AMRAD Corporation Limited, Melbourne, Australia.

[2] = system: Ewing's Sarcoma cell line Al-8; test: Colony formation in semi-solid agar cultures, Al-8 cells; type: cell-based, human; conditions: Al-8, 1,000 cells, day 18
Procedure: as §1, §2, §3, §4, §5, §6, §7

Ewing's Sarcoma cells = test: Colony formation in agar cultures, a number of different Ewing's cell lines (summary statements); type: cell-based, human
From the text: as §5

[3] = Toxicity of hLIF in mice, daily subcutaneous injections; type: in vivo
Procedure: A number of preliminary experiments were performed to determine the appropriate daily dose of hLIF in mice. Mice were injected with high doses of hLIF (100 microgram per mouse). These studies led to death of the mice within 2 weeks of daily subcutaneous injections of LIF. Studies using lower doses (5-20 micrograms per mouse) of hLIF, led to survival of most of the mice for over 20 days. Retro-orbital bleeds were performed on the first 3 days to determine platelet counts. In all mice subcutaneously injected daily with 1 microgram or more of hLIF, the platelet count rose in the first 3 days (26-60% increment on baseline pretreatment levels). In this study an amount of 20 μg of hLIF was chosen to be subcutaneously injected daily into SCID mice bearing Ewing's Sarcoma tumours.

[4] = stimulus 100 ng, mean of duplicate colony counts

LIF: recombinant human leukaemia inhibitory factor (E. coli derived) from AMRAD Corporation Limited
Colonies/Cultures ([1]; stimulus 0.01 ng): 47 | Colonies/Cultures ([1]; stimulus 0.1 ng): 27 | Colonies/Cultures ([1]; stimulus 1 ng): 25 | Colonies/Cultures ([1]; stimulus 10 ng): 18 | Colonies/Cultures [1, 4]: 2 | Colonies/Cultures ([2]; stimulus 0.01 ng): 68 | Colonies/Cultures ([2]; stimulus 0.1 ng): 29 | Colonies/Cultures ([2]; stimulus 1 ng): 23 | Colonies/Cultures ([2]; stimulus 10 ng): 6 | Colonies/Cultures [2, 4]: 3 | Effect on colony counts (Ewing's Sarcoma cells; between 0.1 and 100 ng LIF per culture, agar cultures, different Ewing's cell lines): able to significantly reduce colony counts | Magnitude of colony reduction relative to other growth factors tested (Ewing's Sarcoma cells; culture of Ewing's Sarcoma cells): greater than those induced by other growth factors tested | Number of colonies compared to untreated controls (Ewing's Sarcoma cells; culture of Ewing's Sarcoma cells, dose-dependent): significantly reduces the number of colonies | Platelet count rise, increment on baseline pretreatment levels ([3]; 1 microgram or more daily subcutaneously, first 3 days): 26-60% | Survival of most of the mice ([3]; 5-20 micrograms per mouse): over 20 days | Time to death of the mice ([3]; 100 microgram per mouse, daily subcutaneous injections): ≤ 2 weeks
